Results on one compound are retold here after patent US20090253126A1, “Biomarker Detection Assays” (ASTRAZENECA AB, priority 2004, published 2009).

The test system of one assay is ADN mRNA. Nature of the assay: Gene expression profiling / QRT-PCR of adipsin (ADN) mRNA in intestinal tissue of treated rats. It is filed as in vivo. To be noted: Han Wistar rats, intraperitoneally, 10, 30 and 100 μmol/kg/bid for 5 days. Here is the method:
(§1) Using gene expression profiling we detected several deregulated factors that are consistent with Hes-1 KO data. We confirmed the up-regulation of ADN mRNA in intestinal tissue by DBZ and BZ treatment but not AS treatment. […] This up-regulation preceded the appearance of goblet cell metaplasia in the crypts.
(§2) Compounds with varying potency for modulating the Notch1 pathway and causing intestinal metaplasia were injected intraperitoneally into rats twice daily for 5 days at a concentration of 10 μmol/kg, 30 μmol/kg and 100 μmol/kg. A section of duodenum was taken from untreated rats and those treated with compound. Samples were immediately frozen in liquid nitrogen then placed in a freezer maintained at −80° C. for preservation. […]
(§3) Quantitative real-time PCR (QRT-PCR) was performed by creating a standard curve assaying the gene of interest at known cDNA quantities of 50 ng, 25 ng, 8.33 ng, 2.76 ng, 0.910 ng and 0.154 ng. […] Biosource International (Camarillo, Calif.) synthesized oligonucleotide primers and fluorescence resonance energy transfer (FRET) probes. […] The raw data were applied to the standard curve and quantities were extrapolated using Prism by GraphPad Software (San Diego, Calif.). These quantities were then transformed to express fold change relative to the vehicle control (VC).

The test system of another assay is Math1 transcript. Nature of the assay: Detection of Math1 transcript by quantitative real-time PCR in duodenum of treated rats. It counts as in vivo. To be noted: at earlier time points and at lower dose; Han Wistar rats, intraperitoneally, bid for 5 days. Here is the method: as §1, §2, §3
(In general: Real-time PCR tracks product formation cycle by cycle.)

For the next assay, the system named is Notch signal. To be noted: cited from earlier work.

With `C[C@H](NC(=O)Cc1cc(F)cc(F)c1)C(=O)N[C@@H]1C(=O)N(C)c2ccccc2-c2ccccc21` [DBZ], the “up-regulation of ADN mRNA in intestinal tissue” value in the assay with ADN mRNA is on record as “up-regulation”. Besides, the “induction of Math1 compared with ADN” value with Math1 transcript was “markedly higher than ADN”. Moreover, the Notch signal interruption entry in the assay on Notch signal is on record as “known to interrupt the Notch signal”.
